For 19 molecules, T/C results are on record in PubChem BioAssay AID318 (DTP/NCI, 2004).

Where “and” joins values, the source holds several entries; their conditions need not be identical. Equal entries are not always repeated. Toxic doses and inconclusive results are not listed.

In this experiment the test system is BDF1 mice, P815 leukemia ip, survival T/C. Kind of experiment: NCI In Vivo Anticancer Drug Screen. Data for tumor model P815 Mast Cell Leukemia (Ascitic) (intraperitoneal) in B6D2F1 (BDF1) mice. Conditions: endpoint: survival time, mean or median, higher = longer survival. Here is the method: The antitumor activity of compounds was measured in mice bearing transplantable tumors. Survival or tumor size were measured and the results are expressed as the measurement made in the treated group (T) divided by the measurement made in the vehicle treated control group (C). The tumor model used in this assay is P815 Mast Cell Leukemia (Ascitic) (intraperitoneal) in B6D2F1 (BDF1) mice

Where [1] appears, read: dose: 2.0 mg/kg/injection, schedule: Q01DX010 (ip), vehicle: saline.
Setting [2] is: dose: 4.0 mg/kg/injection, schedule: Q01DX010 (ip), vehicle: saline.
The mark [3] stands for this setting: dose: 8.0 mg/kg/injection, schedule: Q01DX010 (ip), vehicle: saline.
[4] abbreviates: dose: 16.0 mg/kg/injection, schedule: Q01DX010 (ip), vehicle: saline.
The mark [5] stands for this setting: dose: 10.0 mg/kg/injection, schedule: Q01DX015 (ip), vehicle: carboxymethylcellulose (CMC).
[6] abbreviates: dose: 20.0 mg/kg/injection, schedule: Q01DX015 (ip), vehicle: carboxymethylcellulose (CMC).
Where [7] appears, read: dose: 25.0 mg/kg/injection, schedule: Q01DX010 (ip), vehicle: saline.
The mark [8] stands for this setting: dose: 3.13 mg/kg/injection, schedule: Q01DX010 (ip), vehicle: saline.
Where [9] appears, read: dose: 6.25 mg/kg/injection, schedule: Q01DX010 (ip), vehicle: saline.
[10] abbreviates: dose: 12.5 mg/kg/injection, schedule: Q01DX010 (ip), vehicle: saline.
Setting [11] is: dose: 6.0 mg/kg/injection, schedule: Q01DX010 (ip), vehicle: saline.
Where [12] appears, read: dose: 12.0 mg/kg/injection, schedule: Q01DX010 (ip), vehicle: saline.

For `C[C@@H]1C[C@H]2CC[C@H](O2)[C@H](C)C(=O)O[C@@H](C)C[C@@H]2CC[C@@H](O2)[C@@H](C)C(=O)O[C@H](C)C[C@H]2CC[C@H](O2)[C@H](C)C(=O)O[C@@H](C)C[C@@H]2CC[C@@H](O2)[C@@H](C)C(=O)O1`, the T/C by setting is: (dose: 1.5 mg/kg/injection, schedule: Q01DX015 (ip), vehicle: other) 106 % of control; (dose: 3.0 mg/kg/injection, schedule: Q01DX015 (ip), vehicle: other) 98 % of control; (dose: 6.0 mg/kg/injection, schedule: Q01DX015 (ip), vehicle: other) 100 % of control; (dose: 12.0 mg/kg/injection, schedule: Q01DX015 (ip), vehicle: other) 100 % of control.
As to `CC(CCC(C)OS(C)(=O)=O)OS(C)(=O)=O` (stereo unspecified), the T/C is 100 % of control under setting [1]; 100 % of control and 105 % of control under setting [2]; 100 % of control and 105 % of control under setting [3]; 120 % of control under setting [4].
In the case of `N#[N+]c1cnc([O-])[nH]c1=O`, the T/C reads like this: (dose: 1.25 mg/kg/injection, schedule: Q01DX010 (ip), vehicle: saline) 150 % of control; (dose: 2.5 mg/kg/injection, schedule: Q01DX010 (ip), vehicle: saline) 205 % of control; (dose: 5.0 mg/kg/injection, schedule: Q01DX010 (ip), vehicle: saline) 215 % of control and 150 % of control; (dose: 10.0 mg/kg/injection, schedule: Q01DX010 (ip), vehicle: saline) 205 % of control and 161 % of control.
Take `CC[n+]1c(-c2ccccc2)c2cc(N)ccc2c2ccc(N)cc21`: the T/C reads like this: (dose: 0.12 mg/kg/injection, schedule: Q01DX015 (ip), vehicle: saline) 105 % of control; (dose: 0.25 mg/kg/injection, schedule: Q01DX015 (ip), vehicle: saline) 109 % of control; (dose: 0.5 mg/kg/injection, schedule: Q01DX015 (ip), vehicle: saline) 120 % of control; (dose: 1.0 mg/kg/injection, schedule: Q01DX015 (ip), vehicle: saline) 117 % of control; (dose: 2.0 mg/kg/injection, schedule: Q01DX015 (ip), vehicle: saline) 208 % of control; (dose: 5.0 mg/kg/injection, schedule: Q01DX015 (ip), vehicle: saline) 163 % of control. Besides, the T/C (dose: 10.0 mg/kg/injection, schedule: Q01DX015 (ip), vehicle: saline) was 87 % of control.
Consider `CN(C)/N=N/c1nc[nH]c1C(N)=O`, for which the T/C (dose: 25.0 mg/kg/injection, schedule: Q01DX015 (ip), vehicle: carboxymethylcellulose (CMC)) is 103 % of control; the T/C (dose: 50.0 mg/kg/injection, schedule: Q01DX015 (ip), vehicle: carboxymethylcellulose (CMC)) was 110 % of control; the T/C (dose: 150.0 mg/kg/injection, schedule: Q01DX015 (ip), vehicle: carboxymethylcellulose (CMC)) was 96 % of control.
For `CCCCOP(=S)(N1CC1)N1CC1`, the T/C runs as follows: under setting [2], 120 % of control and 122 % of control; under setting [4], 90 % of control and 122 % of control; (dose: 32.0 mg/kg/injection, schedule: Q01DX010 (ip), vehicle: saline) 90 % of control.
Regarding `COc1cc([C@@H]2c3cc4c(cc3[C@H](O)[C@H]3COC(=O)[C@@H]23)OCO4)cc(OC)c1OC`, the T/C by setting is: under setting [5], 112 % of control; under setting [6], 150 % of control; (dose: 40.0 mg/kg/injection, schedule: Q01DX015 (ip), vehicle: carboxymethylcellulose (CMC)) 167 % of control.
On to `CS(=O)(=O)OCC(O)C(O)C(O)C(O)COS(C)(=O)=O` (stereo unspecified), for which the T/C is 100 % of control under setting [7]; 100 % of control and 112 % of control (dose: 50.0 mg/kg/injection, schedule: Q01DX010 (ip), vehicle: saline); 95 % of control and 112 % of control (dose: 100.0 mg/kg/injection, schedule: Q01DX010 (ip), vehicle: saline); 95 % of control and 112 % of control (dose: 200.0 mg/kg/injection, schedule: Q01DX010 (ip), vehicle: saline); 112 % of control (dose: 400.0 mg/kg/injection, schedule: Q01DX010 (ip), vehicle: saline).
As to `C=CC(CN1CC1)OC(C)=O` (stereo unspecified), the T/C reads like this: under setting [1], 94 % of control; under setting [2], 100 % of control; under setting [3], 100 % of control.
With `CC(=O)O[C@]1(C(C)=O)CC[C@H]2[C@@H]3C[C@H](C)C4=CC(=O)C=C[C@]4(C)[C@@]3(F)[C@@H](O)C[C@@]21C`, the T/C (dose: 3.13 mg/kg/injection, schedule: Q01DX010 (sc), vehicle: steriod suspending solution) is 100 % of control; the T/C (dose: 6.25 mg/kg/injection, schedule: Q01DX010 (sc), vehicle: steriod suspending solution) is 100 % of control; the T/C (dose: 12.5 mg/kg/injection, schedule: Q01DX010 (sc), vehicle: steriod suspending solution) was 100 % of control and 106 % of control; the T/C (dose: 25.0 mg/kg/injection, schedule: Q01DX010 (sc), vehicle: steriod suspending solution) is 100 % of control; the T/C (dose: 100.0 mg/kg/injection, schedule: Q01DX010 (sc), vehicle: steriod suspending solution) was 93 % of control.
Take `Nc1nc(=S)c2ncn(C3OC(CO)C(O)C3O)c2[nH]1` (stereo unspecified): the T/C under setting [1] is 155 % of control.
With `N=[N+]=CC(=O)OCC(N)C(=O)O` (stereo unspecified), the T/C is 110 % of control and 111 % of control under setting [8]; 118 % of control and 119 % of control under setting [9]; 100 % of control and 123 % of control under setting [10].
As to `O=C(Nc1ccc(C2=NCCN2)cc1)c1ccc(C(=O)Nc2ccc(C3=NCCN3)cc2)c([N+](=O)[O-])c1`, the T/C under setting [11] is 171 % of control, the T/C under setting [3] is 284 % of control and the T/C under setting [12] was 92 % of control.
As for `N=C(N)c1ccc(Nc2ccc(C(=N)N)cc2)cc1`, the T/C reads like this: (dose: 3.0 mg/kg/injection, schedule: Q01DX010 (ip), vehicle: saline) 94 % of control and 100 % of control; under setting [11], 100 % of control; under setting [12], 88 % of control and 100 % of control; (dose: 24.0 mg/kg/injection, schedule: Q01DX010 (ip), vehicle: saline) 87 % of control.
With `O=NN(CCCl)C(=O)NCCCl`, the T/C runs as follows: under setting [9], 245 % of control and 263 % of control; under setting [10], 159 % of control.
Regarding `NC(=O)N(CCCl)N=O`, the T/C runs as follows: (dose: 0.5 mg/kg/injection, schedule: Q01DX010 (ip), vehicle: saline) 175 % of control; (dose: 1.0 mg/kg/injection, schedule: Q01DX010 (ip), vehicle: saline) 210 % of control; under setting [1], 100 % of control; under setting [2], 105 % of control.
Regarding `CCCNc1ncnc2[nH]ncc12`, the T/C under setting [8] is 95 % of control and 104 % of control; the T/C under setting [9] was 100 % of control and 116 % of control; the T/C under setting [10] is 95 % of control and 100 % of control; the T/C under setting [7] was 95 % of control.
For the molecule `CCCCN(CCCC)CCCCCN`, the T/C (dose: 5.0 mg/kg/injection, schedule: Q01DX015 (ip), vehicle: carboxymethylcellulose (CMC)) is 111 % of control; the T/C under setting [5] was 103 % of control; the T/C under setting [6] was 104 % of control; the T/C (dose: 30.0 mg/kg/injection, schedule: Q01DX015 (ip), vehicle: carboxymethylcellulose (CMC)) was 105 % of control.
In the case of `Clc1ncnc2nc[nH]c12`, the T/C was 100 % of control (dose: 7.5 mg/kg/injection, schedule: Q01DX010 (ip), vehicle: saline); 100 % of control (dose: 9.5 mg/kg/injection, schedule: Q01DX010 (ip), vehicle: saline); 100 % of control (dose: 15.0 mg/kg/injection, schedule: Q01DX010 (ip), vehicle: saline); 100 % of control (dose: 30.0 mg/kg/injection, schedule: Q01DX010 (ip), vehicle: saline); 104 % of control and 109 % of control (dose: 60.0 mg/kg/injection, schedule: Q01DX010 (ip), vehicle: saline).
